# Patent publication US20230201240A1, “TREATMENT OF ADVANCED METASTATIC CANCER” (Can-Fite Biopharma Ltd., priority 2021, published 2023)
# Entries after “also recorded” stand apart in the source; their conditions may differ. Where two headings read alike, the source gives them in different places.
# How the values were obtained:
# [1] = system: advanced HCC and CPB cirrhosis; assay: Phase II randomized, double-blind, placebo-controlled study of namodenoson in advanced HCC with CPB cirrhosis (NCT02128958); format: in vivo, human
# Source text: The diagnosis of HCC in subjects without underlying cirrhosis at the time of diagnosis required cytology and/or histology; for subjects with underlying cirrhosis at the time of diagnosis, HCC diagnosis was established according to the American Association for the Study of Liver Diseases practice guidelines algorithm [Marrero J. A., et al., Hepatology. 2018; 68:723-750]. For subjects who had tolerated sorafenib, ≥3 weeks of prior treatment was required, terminating at ≥2 weeks before study entry. Inclusion criteria included: ECOG PS≤2; having CPB cirrhosis (i.e., CP score 7-9); aspartate aminotransferase (AST) and alanine aminotransferase (ALT) levels ≤5 times the upper limit of normal (ULN); total bilirubin, ≤3.0 mg/dL; serum albumin, ≥2.8 g/dL; prothrombin time (PT), ≤6 s longer than control; serum creatinine, ≤2.0 mg/dL; absolute neutrophil count, […]; and platelet count, […]. Exclusion criteria included: the presence of hepatic encephalopathy; and gastrointestinal hemorrhage requiring transfusion occurring within the past 4 weeks.
# This was a multicenter, randomized, double-blind, placebo-controlled clinical trial (ClinicalTrials.gov identifier NCT02128958). The trial was conducted at 15 sites in Israel, Europe, and the United States. Subjects were enrolled by the participating centers and were randomly assigned 2:1, using a central randomization schedule generated by an independent biostatistician with no stratification prior to randomization. Patients were randomized to either namodenoson (Cl-IB-MECA) 25 mg or matching placebo, administered orally every 12 hours until discontinuation due to intolerance, withdrawal of consent, or death. Though treatment was administered in a continuous manner, the treatment period was divided into 4-week cycles for the purpose of data recording. No crossover was initially allowed; however, by protocol amendment, patients that continued with blinded treatment were offered namodenoson (25 mg twice daily) upon unblinding of the treatment assignments. All study site personnel were blinded to patients' treatment throughout the study period. The study was approved by all relevant national regulatory authorities and local Ethics Committees/Institutional Review Boards. The study was conducted in accordance with the Declaration of Helsinki, and written informed consent was obtained from all the patients.
# The primary endpoint of the study was overall survival (OS). Secondary endpoints were progression-free survival (PFS), overall response rate (ORR), disease control rate (DCR), and safety. […] 2019, 70:1262-1277]. Disease response assessment was evaluated locally by 2 independent blinded radiologists using Response Evaluation Criteria in Solid Tumors (RECIST) version 1.1 [Eisenhauer E. A., et al. Eur. J. Cancer. 2009; 45:228-247]. Tumor status was assessed at baseline and every 8 weeks thereafter by computed tomography scan or magnetic resonance imaging. Safety was monitored through assessments of AEs using the US National Cancer Institute's Common Terminology Criteria for Adverse Events (CTCAE) v4.03. Changes from baseline in vital signs, clinical laboratory parameters, electrocardiograms, physical examinations, and ECOG PS were also assessed. AFP levels were assessed at baseline and every 4 weeks thereafter, as were laboratory parameters associated with hepatic dysfunction and cirrhosis, such as serum ALT, AST, bilirubin, and albumin levels, PT, and international normalized ratio. ALBI scores were calculated from the albumin and bilirubin levels, as previously described [Johnson P. J., et al. J. Clin. Oncol. 2015; 33:550-558].
# Power calculation determined that 75 deaths, assuming a hazard ratio of 0.5, would provide 80% power for the log-rank test at a significance level of 0.05. Primary efficacy analyses were performed on the ITT population. Descriptive statistics were used to summarize patient/tumor characteristics and safety. […]
# [2] = system: advanced unresectable HCC; details: cited from earlier work
# HCC = details: syngeneic orthotopic and xenograft models; cited from earlier work
# [3] = 9 patients with Child-Pugh Score 9
# [4] = 34 namodenoson-treated patients with post-baseline assessment
# [5] = n = 34 with at least 1 post-baseline assessment
# [6] = patients with Child-Pugh score 7
# [7] = patients with Child-Pugh score 8
smiles,measurement,setting,value
"CNC(=O)[C@H]1O[C@@H](n2cnc3c(NCc4cccc(I)c4)nc(Cl)nc32)[C@H](O)[C@@H]1O [namodenoson, 2-chloro-N^6-(3-iodobenzyl)-adenosine-5′-N-methyluronamide]",treatment-related deaths,[1]; 25 mg BID oral,No treatment-related deaths
same,median OS,[1]; [3],3.5 months
same,median PFS,[1]; [3],2.2 months
same,"PR achieved, number of patients",[1]; [4],3 patients
same,"PR achieved, share of patients",[1]; [4],9%
same,patients who experienced CR,[1]; [4],one patient
same,OS HR vs placebo,"[1]; Child-Pugh score 7, 95% CI 0.45-1.43, p=0.46",0.81
same,PFS HR vs placebo,"[1]; Child-Pugh score 7, 95% CI 0.51-1.55, p=0.67",0.89
same,PFS HR vs placebo,"[1]; Child-Pugh score 8, 95% CI 0.23-2.17, p=0.53",0.71
same,OS HR vs placebo,"[1]; Child-Pugh score 8, 95% CI 0.28-2.77, p=0.83",0.88
same,survival of single patient in Open Label Extension,"[1]; advanced metastatic HCC, CPB7, 25 mg orally twice a day",survived five years
same,response of single patient in Open Label Extension,"[1]; advanced metastatic HCC, CPB7, 25 mg orally twice a day for 5 years",Complete Response (CR); also recorded: complete remission of the cancer
same,mean serum albumin levels and albumin-bilirubin (ALBI) scores,[1]; in vivo,did not change significantly
same,withdrawals and dose reductions attributable to namodenoson,"[1]; in vivo, po",no patients withdrew from the study and no dose reductions were attributable to namodenoson
same,Best observed response (RECIST 1.1): CR,[1]; [5],1 (2.94%) n (%)
same,Best observed response (RECIST 1.1): PD,[1]; [5],14 (41.2%) n (%)
same,Best observed response (RECIST 1.1): PR,[1]; [5],3 (8.8%) n (%)
same,Best observed response (RECIST 1.1): SD,[1]; [5],17 (50.0%) n (%)
same,12-month OS rate,"[1]; p=0.028 vs placebo, FIG. 1: patients with Child-Pugh Score 7, 25 mg BID",44%
same,median OS,[1]; [6],6.9 months
same,median PFS,[1]; [6],3.5 months
same,OS,[1]; [7],3.3 months
same,PFS,[1]; [7],2.1 months
same,"clinical benefits of treatment (scan of chest, abdomen, pelvis)","[1]; single patient, advanced metastatic HCC, CPB7, 25 mg orally twice a day","disappearance of ascites, normal liver function, and the disappearance of peritoneal carcinomatosis"
same,progression-free survival (PFS) superiority over placebo,[1]; whole study population,no superiority
same,median OS,"[1]; whole study population, 25 mg BID oral",4.1 months
same,OS hazard ratio [HR] vs placebo,"[1]; whole study population, 95% CI 0.49-1.38, p=0.46",0.82
same,Median overall survival (OS),[2]; CPB patients (28%),8.1 months
same,safety and tolerability,[2]; in vivo,safe and well-tolerated
same,Median overall survival (OS),"[2]; whole study population, 67% failed prior sorafenib",7.8 months
same,effect towards HCC,HCC,induces an apoptotic effect
